Measurements published in patent publication US5480987A, “2-substituted alkyl-3-carboxy carbapenems as antibiotics and a method of producing them” (American Cyanamid Company, priority 1994, dated 1996).
Structures can show the parent of a compound that is named as a salt.

Columns and labels:
Format in all cases: cell-based
E. Coli-OXA-5 = assay: In vitro antibacterial activity of carbapenem, piperacillin and 1:1 combination; conditions: single agent
Description: (§1) A sample of the carbapenems prepared in this invention is tested in combination with the penicillin Piperacillin. The enhanced combined synergistic antibacterial activity is representative of the anti β-lactamase properties of the carbapenems in this invention (Table 2).

Pseudomonas OXA-6 = assay: as above; conditions: single agent
Description: as §1

E. Coli-OXA-4 = assay: as above; conditions: single agent
Description: as §1

E. Coli-OXA-7 = assay: as above; conditions: single agent
Description: as §1

E. Coli-OXA-2 = assay: as above; conditions: single agent
Description: as §1

E. coli ATCC 35218 = assay: In vitro antibacterial activity, MIC by tube dilution, Ec(2); conditions: Nutrient Broth; for MIC: Escherichia coli, ATCC35218, overnight incubation at 37° C., read-out: Minimum Inhibitory Concentration (MIC)
E. coli ATCC 25922 = assay: In vitro antibacterial activity, MIC by tube dilution, Ec(1); conditions: Nutrient Broth; for MIC: Escherichia coli, ATCC25922, overnight incubation at 37° C., read-out: Minimum Inhibitory Concentration (MIC)
Ent. cloacae = assay: In vitro antibacterial activity, MIC by tube dilution, Ent C; conditions: overnight incubation at 37° C., Nutrient Broth; for MIC: Enterobacter cloacae, read-out: Minimum Inhibitory Concentration (MIC)
Staph. aureus ACCC 25923 = assay: In vitro antibacterial activity, MIC by tube dilution, SA(2); conditions: Nutrient Broth; for MIC: Staphylococcus aureus, ACCC25923, overnight incubation at 37° C., read-out: Minimum Inhibitory Concentration (MIC)
Ser. marceslens = assay: In vitro antibacterial activity, MIC by tube dilution, SM; conditions: overnight incubation at 37° C., Nutrient Broth; for MIC: read-out: Minimum Inhibitory Concentration (MIC)
Staph. aureus ATCC 29213 = assay: In vitro antibacterial activity, MIC by tube dilution, SA(1); conditions: Nutrient Broth; for MIC: Staphylococcus aureus, ATCC29213, overnight incubation at 37° C., read-out: Minimum Inhibitory Concentration (MIC)

| SMILES | M.I.C. (E. Coli-OXA-5) | M.I.C. (Pseudomonas OXA-6) | M.I.C. (E. Coli-OXA-4) | M.I.C. (E. Coli-OXA-7) | M.I.C. (E. Coli-OXA-2) | Minimum Inhibitory Concentration (MIC) (E. coli ATCC 35218; overnight incubation at 37° C.) | Minimum Inhibitory Concentration (MIC) (E. coli ATCC 25922; overnight incubation at 37° C.) | Minimum Inhibitory Concentration (MIC) (Ent. cloacae) | Minimum Inhibitory Concentration (MIC) (Staph. aureus ACCC 25923; overnight incubation at 37° C.) | Minimum Inhibitory Concentration (MIC) (Ser. marceslens) | Minimum Inhibitory Concentration (MIC) (Staph. aureus ATCC 29213; overnight incubation at 37° C.) | MIC (E. coli ATCC 35218) | MIC (E. coli ATCC 25922) | MIC (Ent. cloacae) | MIC (Staph. aureus ACCC 25923) | MIC (Ser. marceslens) | MIC (Staph. aureus ATCC 29213) |
| --- | --- | --- | --- | --- | --- | --- | --- | --- | --- | --- | --- | --- | --- | --- | --- | --- | --- |
| CCN1CCN(C(=O)N[C@@H](C(=O)N[C@@H]2C(=O)N3[C@@H]2SC(C)(C)[C@@H]3C(=O)O)c2ccccc2)C(=O)C1=O [Piperacillin, reference compound] | 2 µg/mL | 32 µg/mL | 8 µg/mL | 128 µg/mL | 16 µg/mL |  |  |  |  |  |  |  |  |  |  |  |  |
| COC(=O)C(Cl)=C1CC2C(C(C)O)C(=O)N2C1C(=O)[O-].[Na+] (stereo not drawn) [Example 44, (2R-[2Alpha,3(R* or S*),5alpha,6alpha(R*)]]-3-(1-chloro-2-methoxy-2-oxoethylidene)-6-(1-hydroxyethyl)-7-oxo-1-azabicyclo[3.2.0]heptane-2-carboxylic acid, monosodium salt] |  |  |  |  |  | 128 µg/mL | 128 µg/mL | 128 µg/mL | 64 µg/mL | 128 µg/mL | 64 µg/mL |  |  |  |  |  |  |
| CC(O)C1C(=O)N2C(C(=O)O)=C(CS(=O)(=O)c3ccc(F)cc3)CC12 (stereo not drawn) [Example 48, [5R-[5Alpha,6alpha(R*)]]3-[[fluorophenyl)sulfonyl]methyl]-6-(1-hydroxyethyl)-7-oxo-1-azabicyclo[3.2.0]hept-2-ene-2-carboxylic acid, monosodium salt] | 32 µg/mL | 128 µg/mL | 32 µg/mL | 16 µg/mL | 32 µg/mL |  |  |  |  |  |  | 8 µg/mL | 8 µg/mL | 64 µg/mL | 0.06 µg/mL | 32 µg/mL | 0.06 µg/mL |
| CC(O)C1C(=O)N2C(C(=O)O)=C(CS(=O)(=O)c3cccs3)CC12 (stereo not drawn) [Example 10, [5R-[5Alpha,6alpha(R*)]]-6-(1-hydroxyethyl)-3-[(2-thienylsulfonyl)methyl]-7-oxo-1-azabicyclo[3.2.0]-hept-2-ene-2-carboxylic acid, monosodium salt] |  |  |  |  |  |  |  |  |  |  |  | 1 µg/mL | 1 µg/mL | 32 µg/mL | 0.06 µg/mL | 32 µg/mL | 0.06 µg/mL |
